These are literature values, as cited in patent publication US20080045551A1, “PHARMACEUTICAL COMBINATION COMPRISING AN ADENOSINE A1 ANTAGONIST AND A RADIOCONTRAST MEDIA” (priority 2006, published 2008).

For this data set, the system named is radiocontrast media induced nephropathy. The note with it: intensive care patients; Greiner 2005.

Molecules are shown by their SMILES.

`Cn1c(=O)c2[nH]cnc2n(C)c1=O` [theophylline]: the “prophylaxis of radiocontrast media induced nephropathy (CIN)” value is recorded as “prophylactic properties”.
